Test results reported in patent US20080096859A1, “Compositions and Methods for Treating Ophthalmic Diseases” (priority 2004, published 2008).
Where a name gives a salt, the structure may show the parent alone.

| SMILES | melting point |
| --- | --- |
| c1ccc(CNC[C@@H]2CCN(CCc3c[nH]c4ccc(Cn5cncn5)cc34)C2)cc1 (as salt: oxalate) | 154 to 156 °C |
| c1ccc(CCNC[C@@H]2CCN(CCc3c[nH]c4ccc(-n5cnnc5)cc34)C2)cc1 (as salt: oxalate) (hydrate or solvate) | 189 to 190 °C |
